Measurements taken from patent US20100173873A1, “TREATMENT OF METASTASIZED TUMORS” (Novartis Vaccines and Diagnostics, Inc., priority 2005, published 2010).
“And” between values parts separate entries of the source, which are not always exact repeats. Equal entries are not always repeated. “Also recorded” adds a separate entry of the source. Where two headings read alike, the source gives them in different places.

Columns and labels:
P-glycoprotein = P-glycoprotein (Homo sapiens, UniProt P08183); assay: P-glycoprotein substrate status; format: in vitro ADME
pSTAT5 in MV4;11 tumors = assay: Target modulation in vivo, pSTAT5 in MV4;11 tumors; details: Mus musculus, MV4-11, po
Raf = assay: In vitro kinase assay, Raf; format: biochemical; details: RTK table
MV4;11 tumors [1] = assay: Subcutaneous MV4;11 xenograft model; format: in vivo, SCID-NOD mice
Akt⅓ = assay: In vitro kinase assay, Akt; format: biochemical; details: RTK table
MV4;11 tumors [2] = details: 30 mg/kg/d
pFLT3 in MV4;11 tumors = assay: Target modulation in vivo, pFLT3 in MV4;11 tumors; parameters: species or system SCID-NOD mice; details: 10 mg/kg/d p.o., 48 hours post dose
PI-3K = assay: In vitro kinase assay, PI-3K; format: biochemical; details: RTK table
4T1 murine breast tumor = 4T1 murine breast tumor model (primary tumor, liver and lung metastases); format: in vivo, BALB/c mice; details: for Liver # of Metastases Mean ± SD / Lung # of Metastases Mean ± SD: after 17 days of dosing
[3] = tested on: MV4;11 cells disseminated to bone marrow; assay: Intravenous MV4;11 bone marrow engraftment model; format: in vivo, SCID-NOD mice
Experimental: For processing of bone marrow (BM) cells from the mouse MV4;11 engraftment model, femurs were purged with cold saline and red blood cells lysed with FACS lysis buffer (Becton Dickinson). Percent engraftment of human leukemic cells in mouse BM was determined by staining with anti-human HLA-A,B,C-FITC (vs. isotype-matched antibody-FITC control) (BD Pharmingen).
[…]. […] Mice were monitored daily and were euthanized when moribund or early signs of loss of hind limb motility. Increased life span (ILS) of treated mice was calculated as a percent increase in median survival time (MST) vs. vehicle treated control mice.
[…]. In this model, MV4;11 cells disseminate to the bone marrow (BM), pathologically mimicking a disease pattern similar to human leukemia. […]. Histological analyses and flow cytometry were used to quantify the % engraftment of MV4;11 cells in BM. In flow cytometric analyses, human MV4;11 cells were identified in mouse BM with an anti-human HLA-A,B,C antibody which binds to an epitope on human MHCI. In vehicle-treated mice, approximately 2-19% of total isolated BM cells consisted of engrafted MV4;11 cells (day 51,). This was also corroborated by immunohistochemistry with an antibody to human mitochondria which stains MV4;11 cells identifying the human cells in the mouse BM matrix. […].

[4] = MV4;11 s.c., 30 mg/kg/d p.o., dose-response study

P-glycoprotein, sequence (P08183 whole entry): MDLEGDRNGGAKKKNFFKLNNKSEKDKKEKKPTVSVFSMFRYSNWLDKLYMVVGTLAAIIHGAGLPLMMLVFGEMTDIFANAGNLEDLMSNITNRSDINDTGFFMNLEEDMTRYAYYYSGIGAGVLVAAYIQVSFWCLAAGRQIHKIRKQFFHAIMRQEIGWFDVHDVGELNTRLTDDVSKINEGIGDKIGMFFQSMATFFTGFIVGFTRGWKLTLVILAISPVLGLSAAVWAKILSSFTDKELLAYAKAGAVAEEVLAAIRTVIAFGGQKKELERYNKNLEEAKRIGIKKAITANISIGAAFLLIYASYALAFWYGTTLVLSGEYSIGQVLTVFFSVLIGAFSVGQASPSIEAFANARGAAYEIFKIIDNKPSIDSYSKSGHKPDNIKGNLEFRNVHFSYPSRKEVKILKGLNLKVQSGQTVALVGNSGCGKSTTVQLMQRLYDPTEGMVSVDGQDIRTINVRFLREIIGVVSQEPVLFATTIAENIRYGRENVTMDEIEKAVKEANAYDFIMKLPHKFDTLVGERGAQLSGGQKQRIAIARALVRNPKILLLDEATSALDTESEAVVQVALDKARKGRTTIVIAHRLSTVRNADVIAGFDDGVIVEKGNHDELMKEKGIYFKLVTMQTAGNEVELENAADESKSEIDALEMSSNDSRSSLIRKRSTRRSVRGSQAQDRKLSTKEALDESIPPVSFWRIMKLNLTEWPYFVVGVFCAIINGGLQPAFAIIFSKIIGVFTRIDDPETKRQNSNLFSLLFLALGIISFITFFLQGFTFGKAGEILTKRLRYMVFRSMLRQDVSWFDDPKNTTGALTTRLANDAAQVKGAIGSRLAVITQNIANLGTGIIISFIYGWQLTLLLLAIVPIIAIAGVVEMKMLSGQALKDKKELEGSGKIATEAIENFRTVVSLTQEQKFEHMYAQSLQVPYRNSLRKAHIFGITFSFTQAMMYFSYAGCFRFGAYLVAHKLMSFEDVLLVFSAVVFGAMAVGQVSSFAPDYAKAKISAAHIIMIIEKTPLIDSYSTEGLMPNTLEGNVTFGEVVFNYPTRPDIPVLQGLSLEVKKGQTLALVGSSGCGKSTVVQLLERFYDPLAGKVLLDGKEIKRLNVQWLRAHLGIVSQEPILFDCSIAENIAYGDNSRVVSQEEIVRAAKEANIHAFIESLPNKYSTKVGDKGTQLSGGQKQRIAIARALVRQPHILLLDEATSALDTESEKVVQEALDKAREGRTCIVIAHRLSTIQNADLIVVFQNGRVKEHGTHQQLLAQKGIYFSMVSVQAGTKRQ

CN1CCN(c2ccc3nc(-c4c(N)c5c(F)cccc5[nH]c4=O)[nH]c3c2)CC1 [Compound 1, 4-Amino-5-fluoro-3-[6-(4-methylpiperazin-1-yl)-1H-benzimidazol-2-yl]quinolin-2(1H)-one]
P-GP substrate status (P-glycoprotein): not a P-GP substrate | inhibition at 10 mg/kg (pSTAT5 in MV4;11 tumors; 8 h, read-out: Inhibition of STAT5 phosphorylation in tumors): ~90% | inhibition at 10 mg/kg (pSTAT5 in MV4;11 tumors; 24 h, read-out: Inhibition of STAT5 phosphorylation in tumors): ~85% | inhibition at 10 mg/kg (pSTAT5 in MV4;11 tumors; 48 h, read-out: Inhibition of p-STAT5 in tumors): ~60% | IC50 (Raf): > 10 µM | Complete responses (CR) (MV4;11 tumors [1]; MV4;11 s.c., 30 mg/kg p.o. daily, schedule study (FIG. 4)): 1 | Tumor growth inhibition (TGI) (MV4;11 tumors [1]; MV4;11 s.c., 30 mg/kg p.o., intermittent dosage regimens): > 94% | Complete responses (CR) (MV4;11 tumors [1]; [4]): 1 | Tumor responses (MV4;11 tumors [1]; [4]): 9/10 | Doses with significant tumor growth inhibition (MV4;11 tumors [1]; MV4;11 s.c., p.o., FIG. 2): > 5 mg/kg/day | Minor responses or stable (MV4;11 tumors [1]; large MV4;11 tumors 300, 500 or 1000 mm^3, 30 mg/kg/d, n=27): 15% | Complete responses durable for 40 days after cessation of dosing (MV4;11 tumors [1]; large MV4;11 tumors, 30 mg/kg/d for 50 days): One CR | Regression of large MV4;11 tumors (MV4;11 tumors [1]; tumors staged at 300, 500 or 1000 mm^3, 30 mg/kg/d): significant regression in all MV4;11 tumors; also recorded: induces regression of large MV4;11 tumors | IC50 (Akt⅓): > 10 µM | Phospho-ERK immunohistochemical staining (MV4;11 tumors [2]; 5-day dosing period): significantly lowered | Ki67 staining (proliferation) (MV4;11 tumors [2]; after 5 doses): reduced Ki67 staining | Apoptosis (activated caspase-3, cleaved PARP staining) (MV4;11 tumors [2]; day 5): increased activated caspase-3 and cleaved PARP staining | Phospho-FLT3 in tumors (pFLT3 in MV4;11 tumors): returned closer to baseline levels | IC50 (PI-3K): > 10 µM | Mean Tumor Volume day 18 (4T1 murine breast tumor; 10 mg/kg p.o. once daily): 1798 mm^3 | Treated/Control day 18 (4T1 murine breast tumor; 10 mg/kg p.o. once daily): 0.80 | Max % Inhibition (study day), primary tumor growth (4T1 murine breast tumor; 10 mg/kg p.o. once daily, d 11): 32% and 32 (d 11) % | Liver # of Metastases Mean ± SD (4T1 murine breast tumor; 10 mg/kg): 22 ± 32 | Lung # of Metastases Mean ± SD (4T1 murine breast tumor; 10 mg/kg): 36 ± 32 | Mean Tumor Volume day 18 (4T1 murine breast tumor; 30 mg/kg p.o. once daily): 1246 mm^3 | Treated/Control day 18 (4T1 murine breast tumor; 30 mg/kg p.o. once daily): 0.55 | Max % Inhibition (study day), primary tumor growth (4T1 murine breast tumor; 30 mg/kg p.o. once daily, d 18): 45% and 45 (d 18) % | Liver # of Metastases Mean ± SD (4T1 murine breast tumor; 30 mg/kg): 3 ± 4 | Lung # of Metastases Mean ± SD (4T1 murine breast tumor; 30 mg/kg): 26 ± 26 | Mean Tumor Volume day 18 (4T1 murine breast tumor; 60 mg/kg p.o. once daily): 1248 mm^3 | Treated/Control day 18 (4T1 murine breast tumor; 60 mg/kg p.o. once daily): 0.56 | Max % Inhibition (study day), primary tumor growth (4T1 murine breast tumor; 60 mg/kg p.o. once daily, d 11): 50% and 50 (d 11) % | Liver # of Metastases Mean ± SD (4T1 murine breast tumor; 60 mg/kg): 1 ± 1 | Lung # of Metastases Mean ± SD (4T1 murine breast tumor; 60 mg/kg): 24 ± 11 | Mean Tumor Volume day 18 (4T1 murine breast tumor; 100 mg/kg p.o. once daily): 624 mm^3 | Treated/Control day 18 (4T1 murine breast tumor; 100 mg/kg p.o. once daily): 0.28 | Max % Inhibition (study day), primary tumor growth (4T1 murine breast tumor; 100 mg/kg p.o. once daily, d 14): 74% and 74 (d 14) % | Liver # of Metastases Mean ± SD (4T1 murine breast tumor; 100 mg/kg): 4 ± 13 | Lung # of Metastases Mean ± SD (4T1 murine breast tumor; 100 mg/kg): 24 ± 30 | Mean Tumor Volume day 18 (4T1 murine breast tumor; 150 mg/kg p.o. once daily): 402 mm^3 | Treated/Control day 18 (4T1 murine breast tumor; 150 mg/kg p.o. once daily): 0.18 | Max % Inhibition (study day), primary tumor growth (4T1 murine breast tumor; 150 mg/kg p.o. once daily, d 18): 82% and 82 (d 18) % | Liver # of Metastases Mean ± SD (4T1 murine breast tumor; 150 mg/kg): 0 ± 0 | Lung # of Metastases Mean ± SD (4T1 murine breast tumor; 150 mg/kg): 2 ± 3 | Reduction of number of liver tumor nodules versus controls (4T1 murine breast tumor; 30, 60 and 100 mg/kg treatments): ≥ 77% | Survival (Kaplan-Meier, FIG. 6) ([3]; 20 mg/kg daily or 7 days on/7 days off): prolongs survival | Median survival time (MST) ([3]; 20 mg/kg p.o. 7 days on/7 days off, 5 cycles): 118 days | Increased life span (ILS) ([3]; 20 mg/kg p.o. 7 days on/7 days off, 5 cycles, vs. vehicle): 131% | Long-term survivors (MST >160 days) ([3]; 20 mg/kg p.o. daily): 4 mice | Median survival time (MST) ([3]; 20 mg/kg p.o. daily, day 23-100): 134 days | Tumor cells in BM of surviving mice (anti-human mitochondria IHC) ([3]; day 167): no evidence of tumor cells
